Experimental data from patent publication US6310043A (priority 1999, dated 2001).
Read-outs that look alike come from different tables or passages of the source.

Tests used:
[1] = test system: Vero cells exposed to SLT; format: cell-based, African Green Monkey
SLT-1 (Verotoxin I) = SLT-1 (Verotoxin I) (Bacteriophage H30, UniProt P69178); test: biochemical; format: binding, E. coli
SLT-1 (VT-1) = SLT-1 (VT-1) (Bacteriophage H30, UniProt P69178); format: binding, E. coli
SLT-2 (VT-2) = SLT-2 (VT-2) (Escherichia phage 933W, UniProt P09386); format: binding, E. coli
Chain of SLT-2 (VT-2) (P09386 whole entry, looked up): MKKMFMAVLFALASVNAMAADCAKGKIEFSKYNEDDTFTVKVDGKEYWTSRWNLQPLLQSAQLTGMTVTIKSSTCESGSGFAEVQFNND

SLT-1 = SLT-1 (Bacteriophage H30, UniProt P69178); test: biochemical; format: binding, E. coli
Chain of SLT-1 (P69178 21-89 limits assumed): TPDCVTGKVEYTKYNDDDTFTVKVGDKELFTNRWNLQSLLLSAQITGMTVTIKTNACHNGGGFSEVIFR

Chain of SLT-1 (Verotoxin I) (P69178 whole entry, looked up): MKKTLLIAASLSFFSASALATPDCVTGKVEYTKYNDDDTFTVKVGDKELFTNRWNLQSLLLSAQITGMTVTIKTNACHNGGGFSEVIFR
Chain of SLT-1 (VT-1) (P69178 whole entry, looked up): as above

| SMILES | inhibition of cell lysis caused by the SLT [1] | IC50 (SLT-1 (Verotoxin I)) [µM] | activity relative to the Pk trisaccharide alone (SLT-1 (Verotoxin I); ELISA, VT-I) [times] | IC50 (SLT-1 (VT-1)) [µM] | IC50 (SLT-2 (VT-2)) [µM] | IC50 (SLT-1 (Verotoxin I); read-out: IC50) [µM] | IC50 (SLT-1 (Verotoxin I); IC50) [µM] | Kd (SLT-1) [µM] |
| --- | --- | --- | --- | --- | --- | --- | --- | --- |
| CO[C@@H]1O[C@H](CO)[C@@H](O[C@@H]2O[C@H](CO)[C@H](O[C@H]3O[C@H](CO)[C@H](O)[C@H](O)[C@H]3O)[C@H](O)[C@H]2OCCOC(=O)NCC(O)CNC(=O)OCCO[C@H]2[C@H](O[C@H]3[C@H](O)[C@@H](O)[C@H](OC)O[C@@H]3CO)O[C@H](CO)[C@H](O[C@H]3O[C@H](CO)[C@H](O)[C@H](O)[C@H]3O)[C@@H]2O)[C@H](O)[C@H]1O [Bridged P^k -trisaccharide methyl glycoside dimer] | more effective than a Pk-BSA conjugate at inhibiting cell lysis | 55 | 38 | – | – | – | – | – |
| CO[C@@H]1O[C@H](CO)[C@@H](O[C@@H]2O[C@H](CO)[C@H](O[C@H]3O[C@H](CO)[C@H](O)[C@H](O)[C@H]3O)[C@H](O)[C@H]2OCCOC(=O)NCC(CNC(=O)OCCO[C@H]2[C@H](O[C@H]3[C@H](O)[C@@H](O)[C@H](OC)O[C@@H]3CO)O[C@H](CO)[C@H](O[C@H]3O[C@H](CO)[C@H](O)[C@H](O)[C@H]3O)[C@@H]2O)OC(=O)NCCCCCCCCNc2c(NCCNC(=O)CSCCCO[C@@H]3[C@@H](OCCCSCC(=O)NCCNc4c(NCCCCCCCCNC(=O)OC(CNC(=O)OCCO[C@H]5[C@H](O[C@H]6[C@H](O)[C@@H](O)[C@H](OC)O[C@@H]6CO)O[C@H](CO)[C@H](O[C@H]6O[C@H](CO)[C@H](O)[C@H](O)[C@H]6O)[C@@H]5O)CNC(=O)OCCO[C@H]5[C@H](O[C@H]6[C@H](O)[C@@H](O)[C@H](OC)O[C@@H]6CO)O[C@H](CO)[C@H](O[C@H]6O[C@H](CO)[C@H](O)[C@H](O)[C@H]6O)[C@@H]5O)c(=O)c4=O)[C@H](OC)O[C@H](CO)[C@H]3OCCCSCC(=O)NCCNc3c(NCCCCCCCCNC(=O)OC(CNC(=O)OCCO[C@H]4[C@H](O[C@H]5[C@H](O)[C@@H](O)[C@H](OC)O[C@@H]5CO)O[C@H](CO)[C@H](O[C@H]5O[C@H](CO)[C@H](O)[C@H](O)[C@H]5O)[C@@H]4O)CNC(=O)OCCO[C@H]4[C@H](O[C@H]5[C@H](O)[C@@H](O)[C@H](OC)O[C@@H]5CO)O[C@H](CO)[C@H](O[C@H]5O[C@H](CO)[C@H](O)[C@H](O)[C@H]5O)[C@@H]4O)c(=O)c3=O)c(=O)c2=O)[C@H](O)[C@H]1O [Compound 24] | – | – | – | 0.47 | 0.029 | 0.048 | – | – |
| CO[C@@H]1O[C@H](CO)[C@@H](O[C@@H]2O[C@H](CO)[C@H](O[C@H]3O[C@H](CO)[C@H](O)[C@H](O)[C@H]3O)[C@H](O)[C@H]2O)[C@H](O)[C@H]1O [P^k -trisaccharide methyl glycoside, reference compound] | – | – | – | – | – | 2000 | 2100 | ~1000 |
